In PMC6271228, “Diethyl 2-(Phenylcarbamoyl)phenyl Phosphorothioates: Synthesis, Antimycobacterial Activity and Cholinesterase Inhibition” (Molecules, 2014):
≈ marks a conversion by molar mass, not a printed value. Read-outs that look alike come from different tables or passages of the source.

Key:
[1] = tested on: Mycobacterium tuberculosis My 331/88 (H37Rv); assay: microbe, parasite or virus in culture; assay type: cell-based
[2] = tested on: M. avium My 330/88; assay: microbe, parasite or virus in culture; assay type: cell-based, Mycobacterium avium; details: for MIC: Mycobacterium avium, 37 °C; for MIC values against M. avium: all MIC values (14 and 21 d)
[3] = tested on: M. kansasii My 235/80; assay: microbe, parasite or virus in culture; assay type: cell-based, Mycobacterium kansasii; details: for MIC: Mycobacterium kansasii, 37 °C; for MICs for M. kansasii 235/80: all time points
[4] = tested on: M. kansasii 6509/96 (clinically isolated); assay: microbe, parasite or virus in culture; assay type: cell-based; details: Mycobacterium kansasii, 37 °C
[5] = target: T1, AChE from electric eel (Electrophorus electricus, UniProt O42275); assay: AChE inhibition, modified Ellman's method; assay type: biochemical, Electrophorus electricus L.
T1 construct: Acetylcholinesterase was obtained from electric eel (Electrophorus electricus L.); from tissue; host or cells: electric eel (Electrophorus electricus L.)
Description: (§1) The ability of the tested compounds to inhibit AChE from electric eel (Electrophorus electricus L.) and BChE from equine serum was screened in vitro using modified Ellman’s method for the evaluation of cholinesterase activity. […] […]. These two standards were chosen due to their different structures. […]. The choice of these drugs with different mechanism of action can provide relevant results. All tested compounds expressed a good inhibitory activity with IC50s in low micromolar values.
(§2) The IC50 values were determined using the spectrophotometric Ellman’s method, which is a simple, rapid and direct method to determine the SH and -S-S- group content in proteins. This method is widely used for cholinesterase activity evaluation and screening of the efficiency of cholinesterase inhibitors. Cholinesterase activity is measured indirectly by quantifying the concentration of 5-thio-2-nitrobenzoic acid (TNB) ion formed in the reaction between the thiol reagent 5,5'-dithiobis-2-nitrobenzoic acid (DTNB) and thiocholine, a product of substrate hydrolysis by cholinesterase (i.e., acetylthiocholine, ATCh). All the tested compounds were dissolved in dimethyl sulfoxide (concentration 0.01 M) and then diluted in demineralised water (concentration 0.001 M and 0.0001 M). The Ellman’s method is slightly modified according to Zdrazilova et al.. Acetylcholinesterase was obtained from electric eel (Electrophorus electricus L.) and butyrylcholinesterase from equine serum.

[6] = target: T2, BChE from equine serum (Equus caballus, UniProt P81908); assay: BChE inhibition, modified Ellman's method; assay type: biochemical
T2 construct: butyrylcholinesterase from equine serum; from tissue; host or cells: equine serum
Description: as §1, §2

[7] = 336 h, 14 d, 37 °C, read-out: MIC Mtb 331/88 (H37Rv) 14 d
[8] = 504 h, 21 d, 37 °C, read-out: MIC Mtb 331/88 (H37Rv) 21 d
[9] = MY330/88, 336 h, 14 d, read-out: MIC M. avium 330/88 14 d
[10] = MY330/88, 504 h, 21 d, read-out: MIC M. avium 330/88 21 d
[11] = MY235/80, 168 h, 7 d, read-out: MIC M. kansasii 235/80 7 d
[12] = MY235/80, 336 h, 14 d, read-out: MIC M. kansasii 235/80 14 d
[13] = MY235/80, 504 h, 21 d, read-out: MIC M. kansasii 235/80 21 d
[14] = 168 h, 7 d, read-out: MIC M. kansasii 6509/96 7 d
[15] = 336 h, 14 d, read-out: MIC M. kansasii 6509/96 14 d
[16] = 504 h, 21 d, read-out: MIC M. kansasii 6509/96 21 d

T1 sequence (O42275 24-633): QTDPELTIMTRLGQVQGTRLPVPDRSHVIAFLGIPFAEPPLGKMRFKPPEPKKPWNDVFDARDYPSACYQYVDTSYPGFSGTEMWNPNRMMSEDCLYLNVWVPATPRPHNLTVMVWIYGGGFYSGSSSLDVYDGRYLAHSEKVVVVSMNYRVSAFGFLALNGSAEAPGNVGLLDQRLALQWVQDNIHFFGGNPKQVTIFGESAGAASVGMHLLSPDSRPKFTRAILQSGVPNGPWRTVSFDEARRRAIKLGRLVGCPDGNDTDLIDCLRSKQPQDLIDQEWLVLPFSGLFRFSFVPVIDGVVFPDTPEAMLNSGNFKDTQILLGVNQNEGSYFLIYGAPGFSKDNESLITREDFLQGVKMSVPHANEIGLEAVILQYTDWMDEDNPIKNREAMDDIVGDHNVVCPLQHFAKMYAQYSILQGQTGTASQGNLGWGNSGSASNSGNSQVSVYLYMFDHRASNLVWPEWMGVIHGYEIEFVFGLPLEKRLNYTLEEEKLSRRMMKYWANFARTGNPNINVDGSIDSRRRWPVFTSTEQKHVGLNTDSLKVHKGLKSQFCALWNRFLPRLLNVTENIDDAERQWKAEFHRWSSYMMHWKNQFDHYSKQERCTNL
T2 sequence (P81908 whole entry): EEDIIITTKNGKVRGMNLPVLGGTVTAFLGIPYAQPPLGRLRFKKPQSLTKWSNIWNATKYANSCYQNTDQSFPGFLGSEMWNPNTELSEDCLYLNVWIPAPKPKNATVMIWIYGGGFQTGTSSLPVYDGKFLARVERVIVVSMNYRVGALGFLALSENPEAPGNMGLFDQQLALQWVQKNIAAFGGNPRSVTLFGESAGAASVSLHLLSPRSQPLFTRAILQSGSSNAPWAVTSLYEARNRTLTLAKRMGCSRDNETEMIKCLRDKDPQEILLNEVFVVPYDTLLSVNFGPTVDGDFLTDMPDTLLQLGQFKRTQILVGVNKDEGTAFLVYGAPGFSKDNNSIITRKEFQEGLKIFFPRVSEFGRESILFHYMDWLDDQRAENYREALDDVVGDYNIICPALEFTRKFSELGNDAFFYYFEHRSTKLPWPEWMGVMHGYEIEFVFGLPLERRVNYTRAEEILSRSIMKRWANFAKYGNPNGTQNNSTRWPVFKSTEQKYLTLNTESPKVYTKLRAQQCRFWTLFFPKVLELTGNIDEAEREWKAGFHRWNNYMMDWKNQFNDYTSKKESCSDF

| Compound | MIC [1, 7] | MIC [1, 8] | MIC [2, 9] | MIC [2, 10] | MIC [3, 11] | MIC [3, 12] | MIC [3, 13] | MIC [4, 14] | MIC [4, 15] | MIC [4, 16] | IC50 [5] | IC50 [6] | MIC ([1]; read-out: MIC against Mtb) | MIC values against M. avium [2] | MICs for M. kansasii 235/80 [3] |
| --- | --- | --- | --- | --- | --- | --- | --- | --- | --- | --- | --- | --- | --- | --- | --- |
| CCOP(=S)(OCC)Oc1ccc(Br)cc1C(=O)Nc1cccc(Cl)c1 [1a, O-{4-Bromo-2-[(3-chlorophenyl)carbamoyl]phenyl} O,O-diethyl phosphorothioate] | 8 µM (≈ 3.83 µg/mL) | 16 µM (≈ 7.66 µg/mL) | 500 µM (≈ 239 µg/mL) | > 500 µM | 125 µM (≈ 59.8 µg/mL) | 500 µM (≈ 239 µg/mL) | 500 µM (≈ 239 µg/mL) | 125 µM (≈ 59.8 µg/mL) | 500 µM (≈ 239 µg/mL) | 500 µM (≈ 239 µg/mL) | 12.6 ± 0.05 µM | 13.9 ± 0.05 µM | – | – | – |
| CCOP(=S)(OCC)Oc1ccc(Br)cc1C(=O)Nc1ccc(Cl)cc1 [1b, O-{4-Bromo-2-[(4-chlorophenyl)carbamoyl]phenyl} O,O-diethyl phosphorothioate] | 16 µM (≈ 7.66 µg/mL) | 16 µM (≈ 7.66 µg/mL) | 500 µM (≈ 239 µg/mL) | 500 µM (≈ 239 µg/mL) | 125 µM (≈ 59.8 µg/mL) | 500 µM (≈ 239 µg/mL) | 500 µM (≈ 239 µg/mL) | 125 µM (≈ 59.8 µg/mL) | 500 µM (≈ 239 µg/mL) | 500 µM (≈ 239 µg/mL) | 12.9 ± 0.1 µM | 13.5 ± 0.9 µM | – | – | – |
| CCOP(=S)(OCC)Oc1ccc(Br)cc1C(=O)Nc1ccc(Cl)c(Cl)c1 [1c, O-{4-Bromo-2-[(3,4-dichlorophenyl)carbamoyl]phenyl} O,O-diethyl phosphorothioate] | 4 µM (≈ 2.05 µg/mL) | 4 µM (≈ 2.05 µg/mL) | 500 µM (≈ 257 µg/mL) | 500 µM (≈ 257 µg/mL) | 62.5 µM (≈ 32.1 µg/mL) | 250 µM (≈ 128 µg/mL) | 500 µM (≈ 257 µg/mL) | 62.5 µM (≈ 32.1 µg/mL) | 125 µM (≈ 64.1 µg/mL) | 125 µM (≈ 64.1 µg/mL) | 14 ± 0.1 µM | 18.8 ± 0.7 µM | 4 µM (≈ 2.05 µg/mL) | – | – |
| CCOP(=S)(OCC)Oc1ccc(Br)cc1C(=O)Nc1cccc(Br)c1 [1d] | 16 µM (≈ 8.37 µg/mL) | 16 µM (≈ 8.37 µg/mL) | 125 µM (≈ 65.4 µg/mL) | 125 µM (≈ 65.4 µg/mL) | 125 µM (≈ 65.4 µg/mL) | 125 µM (≈ 65.4 µg/mL) | 125 µM (≈ 65.4 µg/mL) | 125 µM (≈ 65.4 µg/mL) | 125 µM (≈ 65.4 µg/mL) | 125 µM (≈ 65.4 µg/mL) | 11.3 ± 0.05 µM | 20 ± 0.2 µM | – | ≤ 250 µM | ≤ 250 µM |
| CCOP(=S)(OCC)Oc1ccc(Br)cc1C(=O)Nc1ccc(Br)cc1 [1e, O-{4-Bromo-2-[(4-bromophenyl)carbamoyl]phenyl} O,O-diethyl phosphorothioate] | 8 µM (≈ 4.19 µg/mL) | 16 µM (≈ 8.37 µg/mL) | 250 µM (≈ 131 µg/mL) | 250 µM (≈ 131 µg/mL) | 125 µM (≈ 65.4 µg/mL) | 250 µM (≈ 131 µg/mL) | 250 µM (≈ 131 µg/mL) | 62.5 µM (≈ 32.7 µg/mL) | 250 µM (≈ 131 µg/mL) | 250 µM (≈ 131 µg/mL) | 10.7 µM | 18.9 ± 0.2 µM | – | ≤ 250 µM | ≤ 250 µM |
| CCOP(=S)(OCC)Oc1ccc(Br)cc1C(=O)Nc1cccc(F)c1 [1f, O-{4-Bromo-2-[(3-fluorophenyl)carbamoyl]phenyl} O,O-diethyl phosphorothioate] | 8 µM (≈ 3.7 µg/mL) | 16 µM (≈ 7.4 µg/mL) | 250 µM (≈ 116 µg/mL) | 500 µM (≈ 231 µg/mL) | 62.5 µM (≈ 28.9 µg/mL) | 250 µM (≈ 116 µg/mL) | 500 µM (≈ 231 µg/mL) | 62.5 µM (≈ 28.9 µg/mL) | 250 µM (≈ 116 µg/mL) | 250 µM (≈ 116 µg/mL) | 12.7 ± 0.05 µM | 12.2 µM | – | – | – |
| CCOP(=S)(OCC)Oc1ccc(Br)cc1C(=O)Nc1ccc(F)cc1 [1g, O-{4-Bromo-2-[(4-fluorophenyl)carbamoyl]phenyl} O,O-diethyl phosphorothioate] | 32 µM (≈ 14.8 µg/mL) | 32 µM (≈ 14.8 µg/mL) | 500 µM (≈ 231 µg/mL) | > 500 µM | 125 µM (≈ 57.8 µg/mL) | 500 µM (≈ 231 µg/mL) | > 500 µM | 125 µM (≈ 57.8 µg/mL) | 250 µM (≈ 116 µg/mL) | 250 µM (≈ 116 µg/mL) | 12.4 ± 0.05 µM | 12.6 ± 0.3 µM | – | – | – |
| CCOP(=S)(OCC)Oc1ccc(Br)cc1C(=O)Nc1cccc(C(F)(F)F)c1 [1h, O-(4-Bromo-2-{[3-(trifluoromethyl)phenyl]carbamoyl}phenyl) O,O-diethyl phosphorothioate] | 8 µM (≈ 4.1 µg/mL) | 8 µM (≈ 4.1 µg/mL) | 125 µM (≈ 64 µg/mL) | 125 µM (≈ 64 µg/mL) | 32 µM (≈ 16.4 µg/mL) | 62.5 µM (≈ 32 µg/mL) | 125 µM (≈ 64 µg/mL) | 32 µM (≈ 16.4 µg/mL) | 62.5 µM (≈ 32 µg/mL) | 125 µM (≈ 64 µg/mL) | 13 ± 0.02 µM | 20 ± 0.5 µM | 8 µM (≈ 4.1 µg/mL) | ≤ 250 µM | ≤ 250 µM |
